According to ChEMBL document CHEMBL1142848, “Synthesis and antibacterial activity of N-(5-benzylthio-1,3,4-thiadiazol-2-yl) and N-(5-benzylsulfonyl-1,3,4-thiadiazol-2-yl)piperazinyl quinolone derivatives” (2005):
≈ marks a conversion by molar mass, not a printed value.

How the values were obtained:
Format in all cases: functional
Pseudomonas aeruginosa = test: Minimum inhibitory concentration against Pseudomonas aeruginosa
Klebsiella pneumoniae = test: Minimum inhibitory concentration against Klebsiella pneumoniae
[1] = system: Staphylococcus epidermidis; test: Minimum inhibitory concentration against Staphylococcus epidermidis
Escherichia coli = test: Minimum inhibitory concentration against Escherichia coli
Staphylococcus aureus = test: Minimum inhibitory concentration against Staphylococcus aureus
Bacillus subtilis = test: Minimum inhibitory concentration against Bacillus subtilis

SMILES	MIC (Pseudomonas aeruginosa) [µg/mL]	MIC (Klebsiella pneumoniae) [µg/mL]	MIC [1] [µg/mL]	MIC (Escherichia coli) [µg/mL]	MIC (Staphylococcus aureus) [µg/mL]	MIC (Bacillus subtilis) [µg/mL]
CCn1cc(C(=O)O)c(=O)c2cc(F)c(N3CCNCC3)cc21 [NORFLOXACIN]	2 (≈ 6.26 µM)	0.25 (≈ 0.783 µM)	0.5 (≈ 1.57 µM)	0.25 (≈ 0.783 µM)	1 (≈ 3.13 µM)	0.06 (≈ 0.188 µM)
CCn1cc(C(=O)O)c(=O)c2cc(F)c(N3CCN(c4nnc(S(=O)(=O)Cc5ccccc5)s4)CC3)cc21	> 64	> 64	16 (≈ 28.7 µM)	> 64	64 (≈ 115 µM)	8 (≈ 14.3 µM)
O=C(O)c1cn(C2CC2)c2cc(N3CCN(c4nnc(S(=O)(=O)Cc5cccc([N+](=O)[O-])c5)s4)CC3)c(F)cc2c1=O	> 64	16 (≈ 26 µM)	0.05 (≈ 0.0813 µM)	8 (≈ 13 µM)	1 (≈ 1.63 µM)	8 (≈ 13 µM)
O=C(O)c1cn(C2CC2)c2cc(N3CCNCC3)c(F)cc2c1=O [CIPROFLOXACIN]		0.06 (≈ 0.181 µM)	0.25 (≈ 0.754 µM)		0.5 (≈ 1.51 µM)	0.015 (≈ 0.0453 µM)
O=C(O)c1cn(C2CC2)c2cc(N3CCN(c4nnc(S(=O)(=O)Cc5ccc([N+](=O)[O-])cc5)s4)CC3)c(F)cc2c1=O	> 64	64 (≈ 104 µM)	2 (≈ 3.25 µM)	> 64	8 (≈ 13 µM)	1 (≈ 1.63 µM)
CCn1cc(C(=O)O)c(=O)c2cc(F)c(N3CCN(c4nnc(S(=O)(=O)Cc5ccc([N+](=O)[O-])cc5)s4)CC3)cc21	> 64	> 64	8 (≈ 13.3 µM)	> 64	64 (≈ 106 µM)	32 (≈ 53.1 µM)
CCn1cc(C(=O)O)c(=O)c2cc(F)c(N3CCN(c4nnc(SCc5ccccc5)s4)CC3)cc21	> 64	16 (≈ 30.4 µM)	2 (≈ 3.8 µM)	16 (≈ 30.4 µM)	16 (≈ 30.4 µM)	8 (≈ 15.2 µM)
O=C(O)c1cn(C2CC2)c2cc(N3CCN(c4nnc(S(=O)(=O)Cc5ccccc5)s4)CC3)c(F)cc2c1=O	> 64	> 64	4 (≈ 7.02 µM)	> 64	16 (≈ 28.1 µM)	4 (≈ 7.02 µM)
CCn1cc(C(=O)O)c(=O)c2cc(F)c(N3CCN(c4nnc(S(=O)(=O)Cc5cccc([N+](=O)[O-])c5)s4)CC3)cc21	> 64	> 64	64 (≈ 106 µM)	> 64	> 64	64 (≈ 106 µM)
CCn1cc(C(=O)O)c(=O)c2cc(F)c(N3CCN(c4nnc(SCc5cccc([N+](=O)[O-])c5)s4)CC3)cc21	> 64	16 (≈ 28 µM)	0.25 (≈ 0.438 µM)	16 (≈ 28 µM)	2 (≈ 3.5 µM)	8 (≈ 14 µM)
CCn1cc(C(=O)O)c(=O)c2cc(F)c(N3CCN(c4nnc(SCc5ccc([N+](=O)[O-])cc5)s4)CC3)cc21	> 64	64 (≈ 112 µM)	0.5 (≈ 0.876 µM)	32 (≈ 56.1 µM)	4 (≈ 7.01 µM)	2 (≈ 3.5 µM)
CCn1cc(C(=O)O)c(=O)c2cc(F)c(N3CCN(c4nnc(S(=O)(=O)Cc5ccccc5[N+](=O)[O-])s4)CC3)cc21	> 64	64 (≈ 106 µM)	> 64	32 (≈ 53.1 µM)	> 64	16 (≈ 26.6 µM)

Second part, the compound after the results:

MIC (Pseudomonas aeruginosa) [µg/mL]	MIC (Klebsiella pneumoniae) [µg/mL]	MIC [1] [µg/mL]	MIC (Escherichia coli) [µg/mL]	MIC (Staphylococcus aureus) [µg/mL]	MIC (Bacillus subtilis) [µg/mL]	SMILES
> 64	32 (≈ 56.1 µM)	0.5 (≈ 0.876 µM)	16 (≈ 28 µM)	4 (≈ 7.01 µM)	8 (≈ 14 µM)	CCn1cc(C(=O)O)c(=O)c2cc(F)c(N3CCN(c4nnc(SCc5ccccc5[N+](=O)[O-])s4)CC3)cc21
> 64	32 (≈ 59.5 µM)	1 (≈ 1.86 µM)	16 (≈ 29.8 µM)	2 (≈ 3.72 µM)	4 (≈ 7.44 µM)	O=C(O)c1cn(C2CC2)c2cc(N3CCN(c4nnc(SCc5ccccc5)s4)CC3)c(F)cc2c1=O
64 (≈ 110 µM)	16 (≈ 27.5 µM)	0.06 (≈ 0.103 µM)	2 (≈ 3.43 µM)	2 (≈ 3.43 µM)	4 (≈ 6.87 µM)	O=C(O)c1cn(C2CC2)c2cc(N3CCN(c4nnc(SCc5ccccc5[N+](=O)[O-])s4)CC3)c(F)cc2c1=O
> 32	4 (≈ 6.51 µM)	0.03 (≈ 0.0488 µM)	1 (≈ 1.63 µM)	4 (≈ 6.51 µM)	1 (≈ 1.63 µM)	O=C(O)c1cn(C2CC2)c2cc(N3CCN(c4nnc(S(=O)(=O)Cc5ccccc5[N+](=O)[O-])s4)CC3)c(F)cc2c1=O
64 (≈ 110 µM)	2 (≈ 3.43 µM)	0.06 (≈ 0.103 µM)	2 (≈ 3.43 µM)	0.5 (≈ 0.858 µM)	4 (≈ 6.87 µM)	O=C(O)c1cn(C2CC2)c2cc(N3CCN(c4nnc(SCc5cccc([N+](=O)[O-])c5)s4)CC3)c(F)cc2c1=O
32 (≈ 54.9 µM)	2 (≈ 3.43 µM)	0.03 (≈ 0.0515 µM)	1 (≈ 1.72 µM)	0.5 (≈ 0.858 µM)	0.5 (≈ 0.858 µM)	O=C(O)c1cn(C2CC2)c2cc(N3CCN(c4nnc(SCc5ccc([N+](=O)[O-])cc5)s4)CC3)c(F)cc2c1=O
